Reference: patent publication US20110105509A1 (Wyeth, LLC, priority 2009, published 2011)

Target: T1, CRTH2 (Homo sapiens, UniProt Q9Y5Y4)
T1 construct: expressed in transfected cells; host or cells: CHO cells
T1 sequence (Q9Y5Y4 1-395): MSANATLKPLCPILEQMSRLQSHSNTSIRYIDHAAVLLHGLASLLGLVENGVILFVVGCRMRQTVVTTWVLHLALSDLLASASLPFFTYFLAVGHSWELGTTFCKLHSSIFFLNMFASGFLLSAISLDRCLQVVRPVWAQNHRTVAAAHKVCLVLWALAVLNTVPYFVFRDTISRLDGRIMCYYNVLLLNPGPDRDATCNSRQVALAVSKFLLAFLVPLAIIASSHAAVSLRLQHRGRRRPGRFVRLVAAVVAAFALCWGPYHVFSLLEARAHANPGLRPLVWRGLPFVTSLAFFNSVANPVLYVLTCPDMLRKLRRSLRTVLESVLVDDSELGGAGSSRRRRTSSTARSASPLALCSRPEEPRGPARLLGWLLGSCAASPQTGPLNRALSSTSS
Experiment: FRET based competitive immunoassay (cAMP) in CRTH2 expressing CHO cells
Format: cell-based
Conditions: CRTH2 expressing CHO cells incubated with forskolin and PGD2; Eu3+ cryptate-labeled anti-cAMP and d2-labeled cAMP
Description: FRET Assay: To evaluate potency compounds were tested in a FRET based competitive immunoassay in which CRTH2 expressing CHO cells were incubated in the presence of forskolin and PGD2 along with Eu3+ cryptate-labeled anti-cAMP and d2-labeled cAMP.

Going from `Cc1c(-c2ccc(=O)n(C)n2)c2cc(F)ccc2n1CC(=O)O` [Example 159, 2-(5-fluoro-2-methyl-3-(1-methyl-6-oxo-1,6-dihydropyridazin-3-yl)-1H-indol-1-yl)acetic acid] to `CCn1nc(-c2c(C)n(CC(=O)O)c3ccc(F)cc23)ccc1=O` [Example 160, 2-(3-(1-ethyl-6-oxo-1,6-dihydropyridazin-3-yl)-5-fluoro-2-methyl-1H-indol-1-yl)acetic acid], the IC50 falls from 2490 nM to 375 nM (6.6-fold). The second is the more potent here.

Compared with `Cc1c(-c2ccc(=O)n(CC3CC3)n2)c2cc(F)ccc2n1CC(=O)O` [Example 161, 2-(3-(1-(cyclopropylmethyl)-6-oxo-1,6-dihydropyridazin-3-yl)-5-fluoro-2-methyl-1H-indol-1-yl)acetic acid], `Cc1c(-c2ccc(=O)n(CC(F)(F)F)n2)c2cc(F)ccc2n1CC(=O)O` [Example 162, 2-(5-Fluoro-2-methyl-3-(6-oxo-1-(2,2,2-trifluoroethyl)-1,6-dihydropyridazin-3-yl)-1H-indol-1-yl)acetic acid] is 20-fold higher in IC50: 23 nM for the first, 462 nM for the second. The first is the more potent here.

First: Cc1c(-c2ccc(=O)n(CCCC(F)(F)F)n2)c2cc(F)ccc2n1CC(=O)O [Example 163, 2-(5-fluoro-2-methyl-3-(6-oxo-1-(4,4,4-trifluorobutyl)-1,6-dihydropyridazin-3-yl)-1H-indol-1-yl)acetic acid]
Second: Cc1c(-c2ccc(=O)n(CCC(F)(F)F)n2)c2cc(F)ccc2n1CC(=O)O [Example 164, 2-(5-fluoro-2-methyl-3-(6-oxo-1-(3,3,3-trifluoropropyl)-1,6-dihydro-pyridazin-3-yl)-1H-indol-1-yl)acetic acid]
The IC50 of the first is 2.1-fold higher: 865 nM for the first, 409 nM for the second.

Compared with `Cc1c(-c2ccc(=O)n(CC(C)(C)C)n2)c2cc(F)ccc2n1CC(=O)O` [Example 165, 2-(5-fluoro-2-methyl-3-(1-neopentyl-6-oxo-1,6-dihydropyridazin-3-yl)-1H-indol-1-yl)acetic acid], `Cc1c(-c2nn(Cc3c(F)cccc3F)c(=O)c3ccccc23)c2ccccc2n1CC(=O)O` [Example 172, 2-(3-(3-(2,6-difluorobenzyl)-4-oxo-3,4-dihydrophthalazin-1-yl)-2-methyl-1H-indol-1-yl)acetic acid] is lower in IC50: > 1000 nM for the first, 40 nM for the second. The second is the more potent here.

`Cc1c(-c2nn(Cc3nc4ccccc4s3)c(=O)c3ccccc23)c2ccccc2n1CC(=O)O` [Example 167, 2-(3-(3-(benzo[d]thiazol-2-ylmethyl)-4-oxo-3,4-dihydrophthalazin-1-yl)-2-methyl-1H-indol-1-yl)acetic acid] and `Cc1c(-c2nn(Cc3ccc4ccccc4n3)c(=O)c3ccccc23)c2ccccc2n1CC(=O)O` [Example 169, 2-(2-methyl-3-(4-oxo-3-(quinolin-2-ylmethyl)-3,4-dihydrophthalazin-1-yl)-1H-indol-1-yl)acetic acid] are the same in IC50: 14 nM for the first, 14 nM for the second.

`Cc1c(-c2nn(Cc3ccc(S(C)(=O)=O)cc3)c(=O)c3ccccc23)c2ccccc2n1CC(=O)O` [Example 168, 2-(2-methyl-3-(3-(4-(methylsulfonyl)benzyl)-4-oxo-3,4-dihydrophthalazin-1-yl)-1H-indol-1-yl)acetic acid] and `Cc1ccc(Cn2nc(-c3c(C)n(CC(=O)O)c4ccccc34)c3ccccc3c2=O)cc1` [Example 173, 2-(2-methyl-3-(3-(4-methylbenzyl)-4-oxo-3,4-dihydrophthalazin-1-yl)-1H-indol-1-yl)acetic acid] are within 1.5-fold of each other in IC50: 62 nM for the first, 76 nM for the second.

Compared with `Cc1c(-c2nn(Cc3ccc(OC(F)(F)F)cc3)c(=O)c3ccccc23)c2ccccc2n1CC(=O)O` [Example 170, 2-(2-methyl-3-(4-oxo-3-(4-(trifluoromethoxy)benzyl)-3,4-dihydrophthalazin-1-yl)-1H-indol-1-yl)acetic acid], `Cc1c(-c2nn(Cc3ccc(C(F)(F)F)cc3)c(=O)c3ccccc23)c2ccccc2n1CC(=O)O` [Example 171, 2-(2-methyl-3-(4-oxo-3-(4-(trifluoromethyl)benzyl)-3,4-dihydrophthalazin-1-yl)-1H-indol-1-yl)acetic acid] is 12-fold higher in IC50: 25 nM for the first, 296 nM for the second.
